Laboratory results from publication PMC4764553, “Human cytomegalovirus IE1 protein alters the higher-order chromatin structure by targeting the acidic patch of the nucleosome” (eLife, 2016).
Residues, ends and D or L forms follow the SMILES beside them.

Assays:
[1] = target: T1, NCP (nucleosome core particle) (Homo sapiens, UniProt P04908+P06899+P62805+P68431); assay: ITC measurement of full-length IE1, IE1-CTD and IE1ΔCTD binding to NCP at 150 mM NaCl
T1 construct: made in house; host or cells: E. coli BL21(DE3)-RIL

[2] = target: T1, NCP (nucleosome core particle); assay: biochemical; type: binding
[3] = target: T2, human NCP carrying the E56R mutation of histone H2A (Homo sapiens, UniProt P04908+P06899+P62805+P68431, E57R); assay: ITC measurement of peptide binding to NCP reconstituted with H2A E56R mutant; conditions: 20°C, 10 mM Tris-HCl pH 7.5, 50 mM NaCl, Figure 3
T2 construct: made in house; host or cells: E. coli BL21(DE3)-RIL

10-nm nucleosomal array = assay: AUC sedimentation velocity of 10-nm nucleosomal array (without H1); type: biochemical, human; conditions: 12 x 177 bp 601 array without H1, […], peptide to NCP 5:1 molar ratio, 10 mM HEPES pH 8.0, 0.1 mM EDTA, array alone Save 36 ± 1 S, listed as LANA-CTD
Method: (§1) Recombinant human core histones were prepared as described above. Linker histone H1.4 and DNA templates of 12 tandem 177 bp repeats of the 601 sequence were cloned and purified, and reconstituted into chromatin as previously described ([Chen et al., 2013]; [Dyer et al., 2003]; [Li et al., 2010]; [Song et al., 2014]).
(§2) The reconstituted chromatin samples were subject to AUC analysis in a buffer containing 10 mM HEPES, pH 8.0 and 0.1 mM EDTA.

30-nm chromatin fiber = assay: AUC sedimentation velocity of 30-nm chromatin fiber (with H1); type: biochemical, human; conditions: 12 x 177 bp 601 array with H1, […], peptide/protein to NCP 5:1 molar ratio, 10 mM HEPES pH 8.0, 0.1 mM EDTA, listed as LANA-CTD
Method: as §1, §2

nucleosomal arrays = conditions: folding of nucleosomal arrays induced by magnesium ions; ref Chodaparambil et al., 2007; cited from earlier work
From the text: For the purpose of dissecting the functions of individual NCP binding partners, one would ideally like to be able to isolate histone mutants that affect the binding of one protein but not others. The most promising such sites appear to lie in zone II and III, as they are less frequently occupied among known NCP binding proteins (Figure 2). […] Nevertheless, the identification of the E56R variant of histone H2A as an IE1-noninteracting mutant has already se ...

Structure (SMILES): CSCC[C@H](NC(=O)[C@@H]1CCCN1C(=O)[C@H](Cc1c[nH]cn1)NC(=O)[C@@H](NC(=O)[C@H](CO)NC(=O)[C@H](CCCCN)NC(=O)CNC(=O)CN)[C@@H](C)O)C(=O)N[C@H](C(=O)N[C@H](C(=O)N[C@@H](CCCNC(=N)N)C(=O)N[C@@H](CO)C(=O)N[C@@H](CCCCN)C(=O)N[C@@H](C)C(=O)N[C@@H](CC(=O)O)C(=O)N[C@@H](CCC(N)=O)C(=O)O)[C@@H](C)O)C(C)C [IE1-CTD]
- Kd [1]: 2.25 ± 0.1 µM
- Kd [2]: 0.42 ± 0.04 µM

Structure (SMILES): CSCC[C@H](NC(=O)[C@@H]1CCCN1C(=O)[C@H](C)NC(=O)[C@@H](NC(=O)[C@H](CO)NC(=O)[C@H](CCCCN)NC(=O)CNC(=O)CN)[C@@H](C)O)C(=O)N[C@H](C(=O)N[C@H](C(=O)N[C@@H](CCCNC(=N)N)C(=O)N[C@@H](CO)C(=O)N[C@@H](CCCCN)C(=O)N[C@@H](C)C(=O)N[C@@H](CC(=O)O)C(=O)N[C@@H](CCC(N)=O)C(=O)O)[C@@H](C)O)C(C)C [H481A] (H-GGKSTAPMVTRSKADQ-OH)
- Kd [2]: 43.4 ± 5.36 µM

Structure (SMILES): CSCC[C@H](NC(=O)[C@@H]1CCCN1C(=O)[C@@H](N)Cc1c[nH]cn1)C(=O)N[C@H](C(=O)N[C@H](C(=O)N[C@@H](CCCNC(=N)N)C(=O)N[C@@H](CO)C(=O)N[C@@H](CCCCN)C(=O)N[C@@H](C)C(=O)N[C@@H](CC(=O)O)C(=O)N[C@@H](CCC(N)=O)C(=O)O)[C@@H](C)O)C(C)C [Δ476–480] (H-HPMVTRSKADQ-OH)
- Kd [2]: 12.1 ± 0.45 µM

Structure (SMILES): CSCC[C@H](NC(=O)CNC(=O)[C@@H]1CCCN1)C(=O)N[C@@H](CCCNC(=N)N)C(=O)N[C@@H](CC(C)C)C(=O)N[C@@H](CCCNC(=N)N)C(=O)N[C@@H](CO)C(=O)NCC(=O)N[C@@H](CCCNC(=N)N)C(=O)N[C@@H](CO)C(=O)N[C@H](C(=O)NCC(=O)N[C@@H](C)C(=O)N1CCC[C@H]1C(=O)O)[C@@H](C)O [LANA] (H-PGMRLRSGRSTGAP-OH; N-terminus and C-terminus assumed)
- N (ITC), H2A E56R NCP [3]: 2.03
- effect on 10-nm nucleosomal array (in words) (10-nm nucleosomal array): slightly affected
- N (ITC) ([2]; ITC, 20°C, 10 mM Tris-HCl pH 7.5, 50 mM NaCl, human NCP, Figure 3): 1.97
- effect on folding of 30-nm chromatin fiber (in words) (30-nm chromatin fiber): does not affect the folding of the 30-nm chromatin fiber
- compaction of nucleosomal arrays (in words) (nucleosomal arrays): promotes the compaction of nucleosomal arrays

Structure (SMILES): CSCC[C@H](NC(=O)[C@@H]1CCCN1C(=O)[C@H](Cc1c[nH]cn1)NC(=O)[C@@H](NC(=O)[C@H](CO)NC(=O)[C@H](CCCCN)NC(=O)CNC(=O)CN)[C@@H](C)O)C(=O)N[C@H](C(=O)N[C@H](C(=O)N[C@@H](CCCNC(=N)N)C(=O)N[C@@H](CO)C(=O)N[C@@H](CCCCN)C(=O)N[C@@H](C)C(=O)N[C@@H](CC(=O)O)C(=O)N[C@@H](CCC(N)=O)C(=O)O)C(C)C)C(C)C [T485V] (H-GGKSTHPMVVRSKADQ-OH)
- Kd [2]: 11.3 ± 0.73 µM
